# B1: hCNP-53 (peptide)
# peptide: DLRVDTKSRAAWARLLQEHPNARKYKGANKKGLSKGCFGLKLDRIGSMSGLGC
# B2: hCNP-22 (peptide)
# peptide: GLSKGCFGLKLDRIGSMSGLGC
# B3: human NT-CNP(1-19) (peptide)
# peptide: KPGAPPKVPRTPPAEELAE
# Tests used:
# 12 week old lambs = experiment: Dexamethasone 0.25 mg/kg/day for 4 days in 12 week old lambs; assay type: in vivo, sheep; details: after 48 hours of dexamethasone treatment
# Experimental: (§1) FIG. 11A and FIG. 11B: Effect of 4 days of treatment with a glucocorticoid (dexamethasone, 0.25 mg/kg/day) in 12 week old lambs (filled circles, n=8) and in adult sheep (open circles, n=8) on (A) plasma NT-CNP and (B) change (?) in plasma alkaline phosphatase activity (ALP). Values are mean±SEM;
# (§2) This differential response to dexamethasone was highly significant for both NT-CNP (F=5.4, p<0.001) and ALP (F=4.1, p=0.002). After 48 hours of dexamethasone treatment, plasma NT-CNP in lambs fell 30.8±3.5% from basal compared with 17.7±2.7% in adult sheep. Both the onset and offset of dexamethasone's action on NT-CNP preceded that of ALP (FIG. 11A and FIG. 11B).
# adult sheep = experiment: Dexamethasone 0.25 mg/kg/day for 4 days in adult sheep; assay type: in vivo; details: after 48 hours of dexamethasone treatment
# Experimental: as §1, §2
# 4 week old lambs = experiment: Dexamethasone 0.25 mg/kg/day for 15 days in 4 week old lambs versus saline; assay type: in vivo, sheep
# Experimental: FIG. 12A, FIG. 12B, FIG. 12C and FIG. 12D: Effect of a glucocorticoid (dexamethasone, 0.25 mg/kg/day) (filled circles, n=8) or saline control treatment (open circles, n=8), administered to 4 week old lambs for 15 days, on (FIG. 12A) plasma NT-CNP (FIG. 12B) plasma alkaline phosphatase activity (FIG. 12C) metacarpal length and (FIG. 12D) body weight. Values are mean±SEM; and
# In order to study a possible linkage between changes in NT-CNP and growth velocity, a more prolonged study was undertaken in younger growing lambs.
# We undertook a study in normal lambs. Lambs (n=16, aged 4 weeks) either received dexamethasone (0.25 mg/kg/day) or saline injections (controls) for 15 days. The predictive effect of a plasma NT-CNP concentration (drawn 24 hours after starting treatment) on subsequent growth inhibition (defined as growth velocity less than 5% of that of control lambs) was examined by ROC curve analysis (FIG. 13). […] The area under the curve (AUC) was 0.85.
# J39 antisera = experiment: Cross reactivities of the NT-CNP radioimmunoassay using the J39 antisera; assay type: binding, rabbit; details: NT-CNP RIA
# Experimental: Antiserum production: Human NT-CNP(1-15) (5 mg) was conjugated to 4.2 mg of bovine serum albumin (BSA, fraction V, GibcoBRL, Life Technologies) using 62.2 mg of 1-ethyl-3(3-dimethyaminopropyl) carbodiimide at pH 7 for 18 hours and dialysed against phosphate buffered saline. Rabbits were given a primary subcutaneous injection of the antigen after emulsification with an equal volume of complete Freunds adjuvant (Sigma Chemical Co., St Lois. Mo., USA). Subsequent injections using incomplete Freunds reagent were given at monthly intervals. Rabbits were bled two weeks after each injection and tested for binding of radioactive tracer and its displacement by NT-CNP (1-15) standards.
# RIA for N-terminal CNP: NT-CNP(1-15)-Tyr^16 (5 μg) was iodinated using 0.5 mCi Na^125I in the presence of 10 μg chloramine-T in 5 μl 0.5M phosphate buffer, pH 7.5 for 30 seconds, followed by the addition of 50 μg cysteine, 25 μg BSA and 20 μg KI in 100 μl buffer. The resulting mixture was loaded onto a 10 m RP300 Brownlee column and eluted with a gradient from 0-60% acetonitrile in 49 mM KH2PO4 pH 2.9 over 30 min at 1 ml/min, collecting 0.5 ml fractions. The fraction containing the major peak of radioactive NT-CNP(1-15)-[^125I]Tyr^16 was used in the RIA. Peptide standards were made from synthetic human NT-CNP(1-19) taking into account the purity data supplied. […]
# [1] = target: antiserum J39, raised in rabbits to a synthetic peptide corresponding to the first 15 amino acids of human ProCNP(1-103), conjugated to BSA; experiment: competitive radioimmunoassay with J39 antiserum
# [2] = target: antiserum J39, raised in rabbits to a synthetic peptide corresponding to the first 15 amino acids of human ProCNP(1-103), conjugated to BSA; experiment: competitive radioimmunoassay: NT-CNP(1-19) standards displace NT-CNP(1-15)-[125I]Tyr16 from antiserum J39
# [3] = 4 week old lambs, 0.25 mg/kg/day for 15 days
molecule,measurement,setting,value
C[C@@H]1C[C@H]2[C@@H]3CCC4=CC(=O)C=C[C@]4(C)[C@@]3(F)[C@@H](O)C[C@]2(C)[C@@]1(O)C(=O)CO [dexamethasone],fall in plasma NT-CNP from basal,12 week old lambs,30.8±3.5%
same,fall in plasma NT-CNP from basal,adult sheep,17.7±2.7%
same,effect on metacarpal elongation,4 week old lambs; [3],pronounced decrease
same,time for NT-CNP to return to control levels after cessation of treatment,4 week old lambs; [3],≤ 24 h
same,time to fall in NT-CNP after starting treatment,4 week old lambs; [3],≤ 24 h
same,effect on body weight,"4 week old lambs; 4 week old lambs, compared with saline treated lambs",small but significant effect
same,body weight difference between treatment groups at cessation of treatment,"4 week old lambs; day 15, dexamethasone versus saline",not significantly different
hBNP32: peptide tested for cross reactivity in the NT-CNP radioimmunoassay,Cross reactivity,J39 antisera,< 0.05%
hproBNP(1-21): peptide tested for cross reactivity in the NT-CNP radioimmunoassay,Cross reactivity,J39 antisera,< 0.4%
B1,cross reactivity,[1],< 0.07%
B2,cross reactivity,[1],< 0.03%
B3,ED50,[2],0.11 nM

# — patent US7919255B2, “Assessment of skeletal growth using measurements of NT-CNP peptides” (priority 2003, dated 2011)
